Source: a compilation of properties of binary mixtures (doi:10.1021/acs.iecr.1c02970)

Assay: xn = mol fraction of the nth substance listed
Conditions: 100 kPa, x2 = 0

Q: With `O` + CC[n+]1ccn(C)c1.CS(=O)(=O)[O-] as the compound, how does the viscosity (293.15 K) read?
A: 1.002 mPa·s

Q: And the electrical conductivity (303.15 K)?
A: 0.0001 S/m

Q: And the viscosity (303.15 K)?
A: 0.797 mPa·s

Q: And the electrical conductivity (313.15 K)?
A: 0.0002 S/m

Q: What about the speed of sound (313.15 K) of the same compound?
A: 1529.2 m/s

Q: And the viscosity (313.15 K)?
A: 0.653 mPa·s

Q: And the speed of sound (318.15 K)?
A: 1536.7 m/s

Q: And the electrical conductivity (343.15 K)?
A: 0.0018 S/m

Q: What about the speed of sound (343.15 K) of the same compound?
A: 1555.1 m/s

Q: And the viscosity (343.15 K)?
A: 0.4039 mPa·s

Q: What about the electrical conductivity (353.15 K) of the same compound?
A: 0.0023 S/m

Q: And the viscosity (353.15 K)?
A: 0.3544 mPa·s
